Experimental data: US20220213128A1 (RockGen Therapeutics LLC, priority 2021, published 2022)

Assays:
[1] = Plasma stability assay and LC-MS/MS; stability in solution; format: in vitro ADME; conditions: compared with the other designed compounds
Protocol: Having described the compounds generally, including the preferred compound candidates for use in the treatment of PD, the method utilized to test and produce the compounds may now be described. […] The stability of these compounds is determined using a plasma stability assay and LC-MS/MS. The assays are utilized to assess each compound's activity and cellular permeability human dopaminergic neuronal precursor cell lines and Caco-2 cells. […] A in silico analysis may be used to predict bioavailability, BBB penetration, and PK/PD profiles in the peripheral and central nervous system.

[2] = Human Metabolome Database; cited from earlier work
[3] = cited from earlier work

| stability in aqueous solutions and plasma [1] | Compound | lipophilicity, determined experimental value [2] | bioavailability ([3]; after peripheral conversion and gut metabolism) [%] | fraction of oral dose that may reach the brain ([3]; certain formulations, at best) |
| --- | --- | --- | --- | --- |
| more stable | N[C@@H](Cc1ccc(OC(=O)CCCC[C@@H]2CCSS2)c(O)c1)C(=O)O [RG-1] |  |  |  |
| more stable | N[C@@H](Cc1ccc(OC(=O)CCCC[C@@H]2CCSS2)c(O)c1)B(O)O [RG-2] |  |  |  |
|  | N[C@@H](Cc1ccc(O)c(O)c1)C(=O)O [L-Dopa, L-3,4-dihydroxyphenylalanine] | −2.39 | 1 | 5-10% |

| Compound | stability in aqueous solutions and plasma [1] | lipophilicity, determined experimental value [2] | bioavailability ([3]; after peripheral conversion and gut metabolism) [%] | fraction of oral dose that may reach the brain ([3]; certain formulations, at best) |
| --- | --- | --- | --- | --- |
| C[Si](C)(C)CCc1ccc(C[C@@H](N)Cc2ccc(OC(=O)CCCC[C@@H]3CCSS3)c(O)c2)cc1 [RG-4] | more stable |  |  |  |
